Source: PMC9587021, “Construction of a bioluminescence-based assay for bitter taste receptors (TAS2Rs)” (Scientific Reports, 2022)
Where two headings read alike, the source gives them in different places.

Legend:
Experiment in all cases: cell-based
TAS2R39 = molecular target: T1, TAS2R39 (Homo sapiens, UniProt P59534); parameters: bioluminescence intracellular calcium release assay, mt-clytin II with coelenterazine, Gα16-gust44 co-expressed
T1 sequence (P59534 1-338): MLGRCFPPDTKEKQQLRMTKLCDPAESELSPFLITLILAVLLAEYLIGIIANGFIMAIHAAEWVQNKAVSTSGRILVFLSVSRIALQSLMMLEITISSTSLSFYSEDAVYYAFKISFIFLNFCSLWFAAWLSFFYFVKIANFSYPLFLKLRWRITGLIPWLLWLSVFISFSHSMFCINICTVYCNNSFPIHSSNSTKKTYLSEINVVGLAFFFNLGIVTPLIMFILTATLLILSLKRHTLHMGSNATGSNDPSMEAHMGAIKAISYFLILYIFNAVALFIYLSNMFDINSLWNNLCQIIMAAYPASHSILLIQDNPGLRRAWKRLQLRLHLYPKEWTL
Procedure: (§1) The bioluminescence-based assay was used to characterize the functional properties of various human TAS2Rs. For each TAS2R, one or more of its cognate agonists were tested against either the AD-293 or 293AD cell line, or both. Both cell lines were used because of their stronger adherent properties, which facilitate media changes on the day of the FLIPR assay. However, because both cell lines are generated differently, some disparities in gene expression capacities due to a myriad of factors could be reasonably expected. Consequently, some TAS2Rs may be well expressed in one cell line but not the other, and the ability of each cell line to express a particular TAS2R needs to be empirically evaluated. […] However, deviations between our experimental and published potency values for some ligands (i.e. TAS2R4: stevioside; TAS2R7: Mg^2+, Mn^2+, Zn^2+) were observed, which could be attributed to the use of a different assay format, readout and processing parameters, use of different cell lines with resultant potential differences in TAS2R expression levels, and quality and methodological differences in ligand preparations. Because potency values could be obtained that were consistent with the literature, or close to the reported minimal effective stimulatory concentration upon further testing of other TAS2R4/7 agonists, the deviation in EC50 values could be largely attributed to qualitative differences in the ligands (Supplementary Fig. S3). Calcium responses induced by the tested cognate agonists reflected specific TAS2R stimulation. […] Poor localization of TAS2Rs to the cell surface in heterologous systems was associated with diminished receptor signaling output and functionality. One of the more commonly used strategies to enhance the density of TAS2Rs at the cell surface involves fusing an N-terminal signal sequence of either the SST3, or Rho receptor to the TAS2R[24]. We adopted this approach, specifically co-expressing SST3-TAS2R with Gα16-gust44 chimera and mt-clytin II, to develop and validate a bioluminescence-based TAS2R intracellular calcium release assay. A strength of the bioluminescence-based TAS2R assay is its capacity to generate greater assay spans than that of fluorescence-based assays, which could be largely attributed to the utilization of mt-clytin II as the calcium reporter. Calcium-binding photoproteins in general are useful reporters for studying calcium-mediated signaling processes. […] Its fast calcium binding and dissociation kinetics render it a suitable indicator to report on swift, transient changes in calcium ion concentrations and study rapid receptor-ligand interactions. Mitochondrial targeting of clytin II was crucial to generating higher luminescence intensity than that of cytosol-localized clytin II, as inositol 1,4,5-triphosphate (IP3)-induced calcium release from the ER subsequent to ligand activation is thought to result in the formation of ER-proximal, calcium-rich microdomains that enabled the closely apposed mitochondria to sense a higher initial rise in calcium concentration than would be experienced by the bulk cytosol.

TAS2R5 = molecular target: T2, TAS2R5 (Homo sapiens, UniProt Q9NYW4); parameters: bioluminescence intracellular calcium release assay, mt-clytin II with coelenterazine, Gα16-gust44 co-expressed; settings: 293AD cells
T2 sequence (Q9NYW4 1-299): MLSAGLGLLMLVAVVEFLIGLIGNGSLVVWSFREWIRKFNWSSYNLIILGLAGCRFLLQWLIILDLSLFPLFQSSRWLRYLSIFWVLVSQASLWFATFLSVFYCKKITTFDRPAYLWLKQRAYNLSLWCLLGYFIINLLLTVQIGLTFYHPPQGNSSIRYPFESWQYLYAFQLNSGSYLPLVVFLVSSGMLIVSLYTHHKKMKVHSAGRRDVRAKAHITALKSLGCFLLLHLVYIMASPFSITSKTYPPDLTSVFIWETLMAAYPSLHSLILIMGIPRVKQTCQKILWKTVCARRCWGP
Procedure: as §1

TAS2R46 [1] = molecular target: T3, TAS2R46 (Homo sapiens, UniProt P59540); parameters: species or system AD-293; bioluminescence intracellular calcium release assay, mt-clytin II with coelenterazine, Gα16-gust44 co-expressed
T3 sequence (P59540 1-309): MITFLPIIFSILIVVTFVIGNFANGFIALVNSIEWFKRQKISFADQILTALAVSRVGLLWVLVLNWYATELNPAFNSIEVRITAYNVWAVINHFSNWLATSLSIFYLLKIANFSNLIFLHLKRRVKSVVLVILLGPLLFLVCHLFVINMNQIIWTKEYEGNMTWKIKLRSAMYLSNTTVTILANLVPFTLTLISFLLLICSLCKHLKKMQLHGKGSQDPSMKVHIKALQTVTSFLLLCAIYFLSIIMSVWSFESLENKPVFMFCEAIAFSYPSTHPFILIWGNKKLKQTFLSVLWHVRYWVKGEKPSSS
Procedure: (§2) The bioluminescence-based assay was used to characterize the functional properties of various human TAS2Rs. For each TAS2R, one or more of its cognate agonists were tested against either the AD-293 or 293AD cell line, or both. Both cell lines were used because of their stronger adherent properties, which facilitate media changes on the day of the FLIPR assay. However, because both cell lines are generated differently, some disparities in gene expression capacities due to a myriad of factors could be reasonably expected. Consequently, some TAS2Rs may be well expressed in one cell line but not the other, and the ability of each cell line to express a particular TAS2R needs to be empirically evaluated. […] However, deviations between our experimental and published potency values for some ligands (i.e. TAS2R4: stevioside; TAS2R7: Mg^2+, Mn^2+, Zn^2+) were observed, which could be attributed to the use of a different assay format, readout and processing parameters, use of different cell lines with resultant potential differences in TAS2R expression levels, and quality and methodological differences in ligand preparations. […] A strength of the bioluminescence-based TAS2R assay is its capacity to generate greater assay spans than that of fluorescence-based assays, which could be largely attributed to the utilization of mt-clytin II as the calcium reporter. […]

TAS2R46 [2] = molecular target: T3, TAS2R46; parameters: species or system 293AD; bioluminescence intracellular calcium release assay, mt-clytin II with coelenterazine, Gα16-gust44 co-expressed
Procedure: as §2

EC50 (TAS2R39; 293AD cells) | EC50 (TAS2R39; AD-293 cells) | EC50 (TAS2R5) | SMILES | EC50 (TAS2R46 [1]) | EC50 (TAS2R46 [2])
141 ± 44 µM | 362 ± 81 µM | 47 ± 11 µM | O=C(O[C@@H]1Cc2c(O)cc(O)cc2O[C@@H]1c1cc(O)c(O)c(O)c1)c1cc(O)c(O)c(O)c1 [Epigallocatechin gallate] | – | –
– | – | – | O=C1C[C@@H]2OCC=C3CN4CC[C@]56c7ccccc7N1[C@H]5[C@H]2[C@H]3C[C@H]46 [Strychnine] | 1.2 µM | 0.309 ± 0.073 µM
